In patent US20140341853A1, “Bacteria-Mediated Therapy for Cancer” (priority 2013, published 2014):

System: yeast cells
Experiment: MTT assay using transformed E. coli, yeast cells and Daun02 as the prodrug
Format: cell-based
Method: In an exemplary embodiment, E. coli BL21 cells were transformed with the pSV-β-Galactosidase plasmid which contains a gene for beta-gal (available from Promega, Wisconsin, USA). Other types of bacteria and differently configured plasmids can also be used. Yeast can act as a eukaryotic cell model for cancer cells. Yeast cells contain mitochondria and a number of proteins homologous to those in humans. A MTT assay was performed using the transformed E. coli, yeast cells, and Daun02 as the prodrug. MTT is a tetrazolium dye which is converted into an insoluble purple-colored product (formazan) by live cells. The presence of formazan was measured spectrophotometrically. […] FIGS. 2A and 2B illustrate results of studies in which growing yeast cells were exposed to transformed E. coli BL21 cells and the prodrug Daun02. Bacteria and yeast were cultured over night and allowed to grow for 3 hours to be in optimal linear growth phase and samples were incubated together for approximately 5.5 or 10 hours in a 96 well microwell plate. The antibiotic kanamycin was added to all sample wells to reduce bacterial background signal. MTT dye was then added to wells and samples were incubated for three hours. A solubilization solution was then added, incubated for one hour, and the optical density was measured at 570 nm with a microplate reader. The absorbance at 570 nm of bacteria-only and bacteria and yeast-only samples were also measured. […] FIGS. 2A and 2B display results from different treatment times: 5.5 hours and 10 hours, respectively. […] Samples C and D contained beta-gal expressing bacteria, prodrug, and yeast cells. […] The length of time can be increased or decreased to increase the effectiveness of the treatment. […] A 2-Sample T-Test between the control sample and Sample C in the 10 hour experiment returned a p-value of 0.00296. […] Both p-values are smaller than the alpha level of 0.05 chosen before experimentation.

## COc1cccc2c1C(=O)c1c(O)c3c(c(O)c1C2=O)C[C@@](O)(C(C)=O)C[C@@H]3O[C@H]1C[C@H](NC(=O)OCc2ccc(O[C@@H]3O[C@H](CO)[C@H](O)[C@H](O)[C@H]3O)c([N+](=O)[O-])c2)[C@H](O)[C@H](C)O1 [Daun02, N-[4″-(β-galactopyranosyl)-3″-nitrobenzyloxycarbonyl]daunomycin]
Sample C: 2.5 μM Daun02 with beta-gal expressing E. coli BL21, 10 hours, p-value 0.00296 vs control
  MTT absorbance at 570 nm (yeast cell survival): yeast cell death
Sample D: 5 μM Daun02 with beta-gal expressing E. coli BL21, 5.5 hours, bacterial background subtracted
  MTT absorbance at 570 nm (yeast cell survival): low absorption values
Sample D: 5 μM Daun02 with beta-gal expressing E. coli BL21, 10 hours, p-value 0.00593 vs control
  MTT absorbance at 570 nm (yeast cell survival): yeast cell death
Samples A and B: yeast and prodrug, no bacteria (no added beta-gal enzyme), 5.5 and 10 hours
  MTT absorbance at 570 nm (yeast cell survival): close to the control values
